EPA's ToxValDB 9.5

Assays:
Rattus norvegicus [1] = conditions: oral
Rattus norvegicus [2] = assay: FEL; higher = less toxic; conditions: duration: 14 days, oral, gavage, Crl:CD(SD)
[3] = acute, gavage, M, Wistar, Central Nervous System: Novel object recognition test
[4] = chronic, duration: 110 days, gavage, M, Sprague-Dawley, Adrenal: Progesterone (P4)
[5] = chronic, duration: 110 days, gavage, M, Sprague-Dawley, Kidney: Blood Urea Nitrogen (BUN) + Kidney: Creatinine (CREAT), Blood + Liver: Alkaline Phosphatase (ALP), Blood + Liver: Bile Acids, Blood
[6] = chronic, duration: 110 days, gavage, M, Sprague-Dawley, Liver: Liver Histopathology + Liver: Triglycerides (TRIG), Blood
[7] = chronic, duration: 110 days, gavage, M, Sprague-Dawley, Liver: Total Bilirubin (TBILI), Blood + Whole Body: Body Weight Change (0-110d) + Whole Body: Body Weight Change (60-90d) + Whole Body: Body…
[8] = chronic, duration: 110 days, gavage, M, Sprague-Dawley, Testis: Testes, Non-Neoplastic Lesions + Whole Body: Body Weight, Absolute
[9] = chronic, duration: 110 days, gavage, M, Sprague-Dawley, Testis: Testosterone (T)
[10] = reproduction developmental, duration: 14 days, gavage, F, Crl:CD(SD), generation: P0, P0: Heart: Heart Weight, Absolute + P0: Liver: Liver Weight, Relative + P0: Pituitary: Pituitary Gland Weight, Absolute + P0: Spleen: Spleen…
[11] = reproduction developmental, duration: 42 days, gavage, M, Crl:CD(SD), generation: P0, P0: Adrenal Gland: Adrenal Gland, Atrophy of the cortex + P0: Adrenal: Adrenal Gland Weight, Absolute + P0: Blood: Albumin/Globulin (A/G) …
[12] = reproduction developmental, duration: 42 days, gavage, M, Crl:CD(SD), generation: P0, P0: Liver: Alkaline Phosphatase (ALP) + P0: Liver: Liver Weight, Relative + P0: Protein Fraction, Globulin alpha-2
[13] = short-term, duration: 2 weeks, gavage, M, Sprague-Dawley, Adrenal: Estradiol + Adrenal: Testosterone (T) + Testis: Testes Weight, Relative + Whole Body: Body Weight, Absolute
[14] = short-term, duration: 2 weeks, gavage, M, Sprague-Dawley, Liver: Cholesterol (CHOL), Total + Liver: Triglycerides (TRIG), Liver + Liver: Triglycerides (TRIG), Serum
[15] = short-term, duration: 2 weeks, gavage, M, Sprague-Dawley, Liver: Cholesterol (CHOL), Total + Pituitary: Leuteinizing hormone (LH) + Testis: Testes Weight, Absolute
[16] = short-term, duration: 2 weeks, gavage, M, Sprague-Dawley, Liver: Liver Weight, Absolute + Liver: Liver Weight, Relative
[17] = short-term, duration: 28 days, F, Sprague-Dawley, Multi-Organ: Cholesterol (CHOL), Total + Multi-Organ: Estradiol + Whole Body: Body Weight, Absolute

## O=C(O)C(F)(F)C(F)(F)C(F)(F)C(F)(F)C(F)(F)C(F)(F)C(F)(F)C(F)(F)C(F)(F)C(F)(F)C(F)(F)F [Perfluorododecanoic acid]
Rattus norvegicus [1]; acute, gavage, M, Wistar, Brain: Brain Weight, Absolute + Central Nervous System: Elevated platform test (elevated plus test) + Central Nervous System: Forced Swim …
  NOAEL: 50 mg/kg-day
Rattus norvegicus [1]; acute, gavage, M, Wistar, Brain: Brain Weight, Relative + Central Nervous System: Elevated platform test (elevated plus test) + Central Nervous System: Novel object …
  LOAEL: 50 mg/kg-day
Rattus norvegicus [1]; [3]
  LOAEL: 20 mg/kg-day
  NOAEL: 5 mg/kg-day
Rattus norvegicus [1]; [4]
  LOAEL: 0.2 mg/kg-day
  NOAEL: 0.02 mg/kg-day
Rattus norvegicus [1]; [5]
  LOAEL: 0.2 mg/kg-day
  NOAEL: 0.05 mg/kg-day
Rattus norvegicus [1]; chronic, duration: 110 days, gavage, M, Sprague-Dawley, Kidney: Creatine Kinase (CK), Blood + Liver: Albumin (A), Blood + Liver: Liver Weight, Absolute + Liver: Liver Weight, Relative + Liver: Low…
  LOAEL: 0.02 mg/kg-day
Rattus norvegicus [1]; chronic, duration: 110 days, gavage, M, Sprague-Dawley, Leuteinizing hormone (LH) + Pancreas: Insulin + Pituitary: Follicle stimulating hormone (FSH) + Pituitary: Growth Hormone + Prostate: …
  NOAEL: 0.5 mg/kg-day
Rattus norvegicus [1]; chronic, duration: 110 days, gavage, M, Sprague-Dawley, Liver: Alanine Aminotransferase (ALT), Blood + Liver: Aspartate Aminotransferase (AST), Blood + Liver: Cholesterol (CHOL), Total, Blood + …
  NOAEL: 0.5 mg/kg-day
Rattus norvegicus [1]; [6]
  LOAEL: 0.05 mg/kg-day
  NOAEL: 0.02 mg/kg-day
Rattus norvegicus [1]; [7]
  LOAEL: 0.5 mg/kg-day
  NOAEL: 0.2 mg/kg-day
Rattus norvegicus [1]; [8]
  LOAEL: 0.5 mg/kg-day
  NOAEL: 0.2 mg/kg-day
Rattus norvegicus [1]; [9]
  LOAEL: 0.2 mg/kg-day
  NOAEL: 0.05 mg/kg-day
Rattus norvegicus [1]; developmental, duration: 14 days, gavage, F, Crl:CD(SD), generation: F1, F1: Whole Body: Body Weight, Fetal, PND0 + F1: Whole Body: Body Weight, Fetal, PND1 + F1: Whole Body: Body Weight, Fetal, PND4
  NOAEL: 0.5 mg/kg-day
Rattus norvegicus [1]; developmental, duration: 14 days, gavage, M, Crl:CD(SD), generation: F1, F1: Whole Body: Body Weight, Fetal, PND0 + F1: Whole Body: Body Weight, Fetal, PND1 + F1: Whole Body: Body Weight, Fetal, PND4
  NOAEL: 0.5 mg/kg-day
Rattus norvegicus [1]; reproduction developmental, duration: 14 days, gavage, F, Crl:CD(SD), generation: P0, P0: Adrenal Gland: Adrenal Gland, Atrophy of the cortex + P0: Bone Marrow: Bone Marrow, Decrease in hematopoiesis + P0: Forestomach: …
  NOAEL: 2.5 mg/kg-day
Rattus norvegicus [1]; reproduction developmental, duration: 14 days, gavage, F, Crl:CD(SD), generation: P0, P0: Adrenal: Adrenal Gland Weight, Absolute + P0: Adrenal: Adrenal Gland Weight, Relative + P0: Blood: Activated Partial Thromboplastin Time…
  NOAEL: 0.5 mg/kg-day
Rattus norvegicus [1]; reproduction developmental, duration: 14 days, gavage, F, Crl:CD(SD), generation: P0, P0: Blood: Hematocrit (HCT) + P0: Blood: Hematocrit (HCT), Recovery + P0: Blood: Hemoglobin (HGB), Recovery + P0: Blood: Mean Corpuscular …
  LOAEL: 2.5 mg/kg-day
Rattus norvegicus [1]; [10]
  LOAEL: 0.5 mg/kg-day
  NOAEL: 0.1 mg/kg-day
Rattus norvegicus [1]; reproduction developmental, duration: 14 days, gavage, F, Crl:CD(SD), generation: P0, P0: Multi-Organ: Protein Fraction, Albumin
  LOAEL: 0.1 mg/kg-day
Rattus norvegicus [1]; reproduction developmental, duration: 14 days, gavage, M/F, Crl:CD(SD), generation: F1, F1: Uterus: Fetuses, Dead + F1: Uterus: Fetuses, Live + F1: Whole Body: Live Birth Index + F1: Whole Body: Live Pups on Lactation Day 4 + F1…
  NOAEL: 0.5 mg/kg-day
Rattus norvegicus [1]; [11]
  LOAEL: 2.5 mg/kg-day
  NOAEL: 0.5 mg/kg-day
Rattus norvegicus [1]; reproduction developmental, duration: 42 days, gavage, M, Crl:CD(SD), generation: P0, P0: Adrenal: Adrenal Gland Weight, Relative + P0: Basophils + P0: Blood: Activated Partial Thromboplastin Time (APTT) + P0: Blood: …
  NOAEL: 2.5 mg/kg-day
Rattus norvegicus [1]; [12]
  LOAEL: 0.5 mg/kg-day
  NOAEL: 0.1 mg/kg-day
Rattus norvegicus [1]; [13]
  LOAEL: 5 mg/kg-day
  NOAEL: 1 mg/kg-day
Rattus norvegicus [1]; [14]
  LOAEL: 10 mg/kg-day
  NOAEL: 5 mg/kg-day
Rattus norvegicus [1]; [15]
  LOAEL: 10 mg/kg-day
  NOAEL: 5 mg/kg-day
Rattus norvegicus [1]; [16]
  LOAEL: 5 mg/kg-day
  NOAEL: 1 mg/kg-day
Rattus norvegicus [1]; short-term, duration: 2 weeks, gavage, M, Sprague-Dawley, Pituitary: Follicle stimulating hormone (FSH)
  NOAEL: 10 mg/kg-day
Rattus norvegicus [1]; short-term, duration: 28 days, F, Sprague-Dawley, Leuteinizing hormone (LH) + Multi-Organ: Follicle stimulating hormone (FSH) + Ovary: Follicle Count, Antral + Ovary: Follicle Count, …
  NOAEL: 3 mg/kg-day
Rattus norvegicus [1]; [17]
  LOAEL: 3 mg/kg-day
  NOAEL: 1.5 mg/kg-day
Rattus norvegicus [2]; developmental, F, generation: F1, F1: Whole Body: Body Weight, Fetal, PND0 + F1: Whole Body: Body Weight, Fetal, PND1 + F1: Whole Body: Body Weight, Fetal, PND4
  FEL: 2.5 mg/kg-day
Rattus norvegicus [2]; developmental, M, generation: F1, F1: Whole Body: Body Weight, Fetal, PND1 + F1: Whole Body: Body Weight, Fetal, PND4
  FEL: 2.5 mg/kg-day
Rattus norvegicus [2]; reproduction developmental, F, generation: P0, P0: Adrenal: Adrenal Gland Weight, Absolute + P0: Adrenal: Adrenal Gland Weight, Relative + P0: Blood: Albumin/Globulin (A/G) Ratio + P0: …
  FEL: 2.5 mg/kg-day
Rattus norvegicus [2]; reproduction developmental, M/F, generation: F1, F1: Uterus: Fetuses, Dead + F1: Whole Body: Live Birth Index + F1: Whole Body: Male Pups per Pups Sexed + F1: Whole Body: Number of litters
  FEL: 2.5 mg/kg-day
